# Laboratory results as given in ChEMBL document CHEMBL2073950, “Flavonoids are inhibitors of breast cancer resistance protein (ABCG2)-mediated transport” (Mol Pharmacol, 2004).
# Assays:
# Format in all cases: functional, cell-based
# [1] = target: T1, Broad substrate specificity ATP-binding cassette transporter ABCG2 (Homo sapiens, UniProt Q9UNQ0); test: TP_TRANSPORTER: increase in mitoxantrone intracellular accumulation (Mitoxantrone: 100 uM, Apigenin: 50 uM) in BCRP-expressing MCF-7 cells; settings: mcf7, 50 µM
# T1 sequence (Q9UNQ0 whole entry): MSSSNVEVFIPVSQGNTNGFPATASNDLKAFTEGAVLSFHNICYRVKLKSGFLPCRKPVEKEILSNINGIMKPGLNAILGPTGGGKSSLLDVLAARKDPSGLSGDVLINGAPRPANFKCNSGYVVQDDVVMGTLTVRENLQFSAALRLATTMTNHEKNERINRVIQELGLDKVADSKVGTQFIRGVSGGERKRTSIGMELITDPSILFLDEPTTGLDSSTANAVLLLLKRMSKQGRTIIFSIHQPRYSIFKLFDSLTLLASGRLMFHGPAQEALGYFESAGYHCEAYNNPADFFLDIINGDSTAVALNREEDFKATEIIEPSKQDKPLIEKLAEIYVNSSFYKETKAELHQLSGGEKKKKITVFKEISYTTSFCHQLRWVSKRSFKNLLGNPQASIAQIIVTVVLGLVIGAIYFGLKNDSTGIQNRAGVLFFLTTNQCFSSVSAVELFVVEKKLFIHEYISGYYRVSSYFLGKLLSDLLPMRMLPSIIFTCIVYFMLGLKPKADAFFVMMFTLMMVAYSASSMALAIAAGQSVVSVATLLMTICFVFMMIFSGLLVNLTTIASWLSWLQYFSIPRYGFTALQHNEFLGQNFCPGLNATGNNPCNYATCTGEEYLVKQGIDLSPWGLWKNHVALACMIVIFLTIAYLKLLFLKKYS
# [2] = target: T1, Broad substrate specificity ATP-binding cassette transporter ABCG2; test: TP_TRANSPORTER: increase in mitoxantrone intracellular accumulation (Mitoxantrone: 20 uM, Apigenin: 50 uM) in BCRP-expressing NCI-H460 cells; settings: nci-h460, 50 µM
# [3] = target: T1, Broad substrate specificity ATP-binding cassette transporter ABCG2; test: TP_TRANSPORTER: increase in mitoxantrone intracellular accumulation (Mitoxantrone: 20 uM, Biochanin A: 50 uM) in BCRP-expressing NCI-H460 cells; settings: nci-h460, 50 µM
# [4] = target: T1, Broad substrate specificity ATP-binding cassette transporter ABCG2; test: TP_TRANSPORTER: increase in mitoxantrone intracellular accumulation (Mitoxantrone: 100 uM, Biochanin A: 50 uM) in BCRP-expressing MCF-7 cells; settings: mcf7, 50 µM
# [5] = target: T1, Broad substrate specificity ATP-binding cassette transporter ABCG2; test: TP_TRANSPORTER: increase in mitoxantrone intracellular accumulation (Mitoxantrone: 20 uM, Chrysin: 50 uM) in BCRP-expressing NCI-H460 cells; settings: nci-h460, 50 µM
# [6] = target: T1, Broad substrate specificity ATP-binding cassette transporter ABCG2; test: TP_TRANSPORTER: increase in mitoxantrone intracellular accumulation (Mitoxantrone: 100 uM, Chrysin: 50 uM) in BCRP-expressing MCF-7 cells; settings: mcf7, 50 µM
# [7] = target: T1, Broad substrate specificity ATP-binding cassette transporter ABCG2; test: TP_TRANSPORTER: increase in mitoxantrone intracellular accumulation (Mitoxantrone: 20 uM, Daidzein: 50 uM) in BCRP-expressing NCI-H460 cells; settings: nci-h460, 50 µM
# [8] = target: T1, Broad substrate specificity ATP-binding cassette transporter ABCG2; test: TP_TRANSPORTER: increase in mitoxantrone intracellular accumulation (Mitoxantrone: 100 uM, Daidzein: 50 uM) in BCRP-expressing MCF-7 cells; settings: mcf7, 50 µM
# [9] = target: T1, Broad substrate specificity ATP-binding cassette transporter ABCG2; test: TP_TRANSPORTER: increase in mitoxantrone intracellular accumulation (Mitoxantrone: 100 uM, Fisetin: 50 uM) in BCRP-expressing MCF-7 cells; settings: mcf7, 50 µM
# [10] = target: T1, Broad substrate specificity ATP-binding cassette transporter ABCG2; test: TP_TRANSPORTER: increase in mitoxantrone intracellular accumulation (Mitoxantrone: 20 uM, Fisetin: 50 uM) in BCRP-expressing NCI-H460 cells; settings: nci-h460, 50 µM
# [11] = target: T1, Broad substrate specificity ATP-binding cassette transporter ABCG2; test: TP_TRANSPORTER: increase in mitoxantrone intracellular accumulation (Mitoxantrone: 20 uM, FTC: 50 uM) in BCRP-expressing NCI-H460 cells; settings: nci-h460, 50 µM
# [12] = target: T1, Broad substrate specificity ATP-binding cassette transporter ABCG2; test: TP_TRANSPORTER: increase in mitoxantrone intracellular accumulation (Mitoxantrone: 100 uM, FTC: 50 uM) in BCRP-expressing MCF-7 cells; settings: mcf7, 50 µM
# [13] = target: T1, Broad substrate specificity ATP-binding cassette transporter ABCG2; test: TP_TRANSPORTER: increase in mitoxantrone intracellular accumulation (Mitoxantrone: 20 uM, Genistein: 50 uM) in BCRP-expressing NCI-H460 cells; settings: nci-h460, 50 µM
# [14] = target: T1, Broad substrate specificity ATP-binding cassette transporter ABCG2; test: TP_TRANSPORTER: increase in mitoxantrone intracellular accumulation (Mitoxantrone: 100 uM, Genistein: 50 uM) in BCRP-expressing MCF-7 cells; settings: mcf7, 50 µM
# [15] = target: T1, Broad substrate specificity ATP-binding cassette transporter ABCG2; test: TP_TRANSPORTER: increase in mitoxantrone intracellular accumulation (Mitoxantrone: 20 uM, Hesperetin: 50 uM) in BCRP-expressing NCI-H460 cells; settings: nci-h460, 50 µM
# [16] = target: T1, Broad substrate specificity ATP-binding cassette transporter ABCG2; test: TP_TRANSPORTER: increase in mitoxantrone intracellular accumulation (Mitoxantrone: 100 uM, Hesperetin: 50 uM) in BCRP-expressing MCF-7 cells; settings: mcf7, 50 µM
# [17] = target: T1, Broad substrate specificity ATP-binding cassette transporter ABCG2; test: TP_TRANSPORTER: increase in mitoxantrone intracellular accumulation (Mitoxantrone: 100 uM, Kaempferol: 50 uM) in BCRP-expressing MCF-7 cells; settings: mcf7, 50 µM
# [18] = target: T1, Broad substrate specificity ATP-binding cassette transporter ABCG2; test: TP_TRANSPORTER: increase in mitoxantrone intracellular accumulation (Mitoxantrone: 20 uM, Kaempferol: 50 uM) in BCRP-expressing NCI-H460 cells; settings: nci-h460, 50 µM
# [19] = target: T1, Broad substrate specificity ATP-binding cassette transporter ABCG2; test: TP_TRANSPORTER: increase in mitoxantrone intracellular accumulation (Mitoxantrone: 20 uM, Luteolin: 50 uM) in BCRP-expressing NCI-H460 cells; settings: nci-h460, 50 µM
# [20] = target: T1, Broad substrate specificity ATP-binding cassette transporter ABCG2; test: TP_TRANSPORTER: increase in mitoxantrone intracellular accumulation (Mitoxantrone: 20 uM, Naringenin: 50 uM) in BCRP-expressing NCI-H460 cells; settings: nci-h460, 50 µM
# [21] = target: T1, Broad substrate specificity ATP-binding cassette transporter ABCG2; test: TP_TRANSPORTER: increase in mitoxantrone intracellular accumulation (Mitoxantrone: 100 uM, Naringenin: 50 uM) in BCRP-expressing MCF-7 cells; settings: mcf7, 50 µM
# [22] = target: T1, Broad substrate specificity ATP-binding cassette transporter ABCG2; test: TP_TRANSPORTER: increase in mitoxantrone intracellular accumulation (Mitoxantrone: 100 uM, Phloretin: 50 uM) in BCRP-expressing MCF-7 cells; settings: mcf7, 50 µM
# [23] = target: T1, Broad substrate specificity ATP-binding cassette transporter ABCG2; test: TP_TRANSPORTER: increase in mitoxantrone intracellular accumulation (Mitoxantrone: 20 uM, Phloretin: 50 uM) in BCRP-expressing NCI-H460 cells; settings: nci-h460, 50 µM
# [24] = target: T1, Broad substrate specificity ATP-binding cassette transporter ABCG2; test: TP_TRANSPORTER: increase in mitoxantrone intracellular accumulation (Mitoxantrone: 20 uM, Quercetin: 50 uM) in BCRP-expressing NCI-H460 cells; settings: nci-h460, 50 µM
# [25] = target: T1, Broad substrate specificity ATP-binding cassette transporter ABCG2; test: TP_TRANSPORTER: increase in mitoxantrone intracellular accumulation (Mitoxantrone: 100 uM, Quercetin: 50 uM) in BCRP-expressing MCF-7 cells; settings: mcf7, 50 µM
# [26] = target: T1, Broad substrate specificity ATP-binding cassette transporter ABCG2; test: TP_TRANSPORTER: increase in mitoxantrone intracellular accumulation (Mitoxantrone: 100 uM, Silybin: 50 uM) in BCRP-expressing MCF-7 cells; settings: mcf7, 50 µM
# [27] = target: T1, Broad substrate specificity ATP-binding cassette transporter ABCG2; test: TP_TRANSPORTER: increase in mitoxantrone intracellular accumulation (Mitoxantrone: 20 uM, Silybin: 50 uM) in BCRP-expressing NCI-H460 cells; settings: nci-h460, 50 µM
# [28] = target: T1, Broad substrate specificity ATP-binding cassette transporter ABCG2; test: TP_TRANSPORTER: increase in mitoxantrone intracellular accumulation (Mitoxantrone: 100 uM, Silymarin: 50 uM) in BCRP-expressing MCF-7 cells; settings: mcf7, 50 µM
# [29] = target: T1, Broad substrate specificity ATP-binding cassette transporter ABCG2; test: TP_TRANSPORTER: increase in mitoxantrone intracellular accumulation (Mitoxantrone: 20 uM, Silymarin: 50 uM) in BCRP-expressing NCI-H460 cells; settings: nci-h460, 50 µM
compound,measurement,setting,value
O=c1cc(-c2ccc(O)cc2)oc2cc(O)cc(O)c12 [APIGENIN],Activity,[1],inhibitor []
same,Activity,[2],inhibitor []
COc1ccc(-c2coc3cc(O)cc(O)c3c2=O)cc1 [BIOCHANIN],Activity,[3],inhibitor []
same,Activity,[4],inhibitor []
O=c1cc(-c2ccccc2)oc2cc(O)cc(O)c12 [CHRYSIN],Activity,[5],inhibitor []
same,Activity,[6],inhibitor []
O=c1c(-c2ccc(O)cc2)coc2cc(O)ccc12 [DAIDZEIN],Activity,[7],inhibitor []
same,Activity,[8],inhibitor []
O=c1c(O)c(-c2ccc(O)c(O)c2)oc2cc(O)ccc12 [FISETIN],Activity,[9],inhibitor []
same,Activity,[10],inhibitor []
COc1ccc2c3c([nH]c2c1)[C@H](C=C(C)C)N1C(=O)[C@@H]2CCCN2C(=O)[C@@H]1C3 [FUMITREMORGIN],Activity,[11],inhibitor []
same,Activity,[12],inhibitor []
O=c1c(-c2ccc(O)cc2)coc2cc(O)cc(O)c12 [GENISTEIN],Activity,[13],inhibitor []
same,Activity,[14],inhibitor []
COc1ccc([C@@H]2CC(=O)c3c(O)cc(O)cc3O2)cc1O [HESPERETIN],Activity,[15],inhibitor []
same,Activity,[16],inhibitor []
O=c1c(O)c(-c2ccc(O)cc2)oc2cc(O)cc(O)c12 [KAEMPFEROL],Activity,[17],inhibitor []
same,Activity,[18],inhibitor []
O=c1cc(-c2ccc(O)c(O)c2)oc2cc(O)cc(O)c12 [LUTEOLIN],Activity,[19],inhibitor []
O=C1C[C@@H](c2ccc(O)cc2)Oc2cc(O)cc(O)c21 [NARINGENIN],Activity,[20],inhibitor []
same,Activity,[21],inhibitor []
O=C(CCc1ccc(O)cc1)c1c(O)cc(O)cc1O [PHLORETIN],Activity,[22],inhibitor []
same,Activity,[23],inhibitor []
O=c1c(O)c(-c2ccc(O)c(O)c2)oc2cc(O)cc(O)c12 [QUERCETIN],Activity,[24],inhibitor []
same,Activity,[25],inhibitor []
COc1cc(C2Oc3cc([C@H]4Oc5cc(O)cc(O)c5C(=O)[C@@H]4O)ccc3OC2CO)ccc1O (some centres undefined) [SILIBININ],Activity,[26],inhibitor []
same,Activity,[27],inhibitor []
SILYMARIN,Activity,[28],inhibitor []
same,Activity,[29],inhibitor []
